Tests used:
Human 11β HSD1 = molecular target: T1, Human 11β HSD1 (Homo sapiens, UniProt P28845); experiment: 11β HSD1 cortisol radioimmunoassay (RIA), human hepatic microsomes; assay type: biochemical; conditions: 10 μM compound; typical sd ± 5%, N=2
T1 construct: human hepatic microsomes were obtained from XenoTech, product H0610/Lot 0210078; tissue XenoTech H0610/Lot 0210078; host or cells: human liver (hepatic microsomes)
Protocol: Standard Operating Procedure for the 11β-Hydroxysteroid Dehydrogenase Type 1 cortisol Radioimmunoassay (11β HSD1 Cortisol RIA).
Prepare 10 mM stock solutions in 100% DMSO at 100 times the required assay concentration. Dilute into assay buffer 1 in 25. Also dilute neat DMSO 1 in 25 into assay buffer for controls.
Dilute this 1 in 50 into assay buffer.
Mix these 3 solutions 1:1:1 to make a solution of sufficient volume for 25 μl additions to each sample.
Dilute stock 20 mg/ml solution 1 in 100 with assay buffer.
Dilute stock antibody solution to 17 μg/ml in antibody binding buffer.
To a u-bottom polypropylene 96 well plate add:
25 μl compound dilution or diluted DMSO to controls, NSB's and blanks
10 μl […] in DMSO (enzyme stop solution) to blanks
25 μl substrate mixture to all samples
50 μl diluted microsomes to all samples
Incubate plate for 30 min at 37° C. shaking
Add 10 μl enzyme stop solution to all wells except the blanks
Add 100 μl antibody solution to all wells except the NSB's, add antibody binding buffer to these wells
Incubate at 37° C. for 1 h
Add 50 μl/well charcoal solution and mix with an 8-channel pipette (4-5 aspirations)
Centrifuge at 4° C., 2000×g for 15 min
Transfer 100 μl supernatant into an Optiplate, also add 25 μl substrate mixture to 2 empty wells to indicate counting efficiency
Add 200 μl Microscint-40 to all wells and count on a Topcount
The 11β HSD1 enzyme assay was carried out following the standard operating procedure described above in u-bottom polypropylene 96 well plates or 1.5 ml Eppendorf tubes as indicated for each experiment. Subsequent to stopping the enzyme reaction, 100 μl antibody prepared in buffer 3 unless otherwise indicated was added to test samples and 100 μl buffer 3 was added to the NSB samples. […] Aliquots of the supernatant (100 μl) were transferred to an Optiplate and counted on the Topcount in 150-200 μl Microscint 40. In some experiments, aliquots of supernatant were transferred to scintillation vials and counted on the Tricarb LSC in 5 ml Ultima Gold scintillant.

T1 sequence (P28845 whole entry): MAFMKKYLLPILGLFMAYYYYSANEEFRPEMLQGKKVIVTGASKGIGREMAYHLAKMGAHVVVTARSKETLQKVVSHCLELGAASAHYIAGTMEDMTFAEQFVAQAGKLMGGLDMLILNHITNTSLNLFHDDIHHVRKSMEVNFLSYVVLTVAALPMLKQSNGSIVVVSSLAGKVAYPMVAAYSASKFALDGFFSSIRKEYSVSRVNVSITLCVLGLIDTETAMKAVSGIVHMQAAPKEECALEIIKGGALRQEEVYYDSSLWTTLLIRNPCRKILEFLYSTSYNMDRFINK

SMILES | melting point [°C] | inhibition at 10 µM (Human 11β HSD1) [%]
CCCc1ccc(S(=O)(=O)NN2CCN(C)CC2)cc1 [STX551, N-(4-Methylpiperazin-1-yl)-4-propylbenzenesulfonamide] | 153 to 154 | > 35
CCCc1ccc(S(=O)(=O)NCCc2ncc[nH]2)cc1 [STX578, N-[2-(4H-Imidazol-2-yl)-ethyl]-4-propylbenzenesulfonamide] |  | > 35
CCCc1ccc(S(=O)(=O)NN2CCOCC2)cc1 [STX586, N-Morpholin-4-yl-4-propyl-benzenesulfonamide] | 150 to 152 | > 35
